Literature values in patent US20030181501A1 (priority 2001, published 2003).

Details: Dionne (1999)

Solubility in water: extremely low solubility in water
SMILES: Cc1onc(-c2ccccc2)c1-c1ccc(S(N)(=O)=O)cc1 [Valdecoxib, 4-(5-methyl-3-phenyl-4-isoxazolyl)benzenesulfonamide]
